Reference: ChEMBL document CHEMBL5465560, “Selectivity Literature for EUbOPEN Chemogenomic Library” (2024)

Key:
[1] = system: Epidermal growth factor receptor (Homo sapiens), P00533 [UNDEFINED MUTATION]; settings: at 10 µM
[2] = target: Mitogen-activated protein kinase kinase kinase 20 (Homo sapiens) (UniProt Q9NYL2); settings: at 10 µM
[3] = target: Serine/threonine-protein kinase Nek6 (Homo sapiens) (UniProt Q9HC98); settings: at 10 µM
[4] = target: Tyrosine-protein kinase SYK (Homo sapiens, UniProt P43405); assay: Selectivity interaction (Millipore kinase profiler) EUB0000124b SYK; settings: at 10 µM
[5] = target: Glycogen synthase kinase-3 alpha (Homo sapiens, UniProt P49840); assay: Selectivity interaction (Kinase counterscreening (biochemical assay)) EUB0000604a GSK3A
[6] = target: Tyrosine-protein kinase Blk (Homo sapiens) (UniProt P51451); assay: Selectivity interaction (KinomeScan (DiscoverX)) EUB0001049a BLK; settings: at 1 µM
[7] = target: Acetylcholine receptor subunit alpha (Homo sapiens, UniProt P02708); assay: Selectivity interaction (Panel of kinases, GPCRs, ion channels and transporters (enzymatic assay)) EUB0000266bCl CHRNA1
[8] = target: Casein kinase I isoform gamma-3 (Homo sapiens) (UniProt Q9Y6M4); assay: Selectivity interaction (Kinase panel (Invitrogen)) EUB0000639a CSNK1G3; settings: at 200 nM
[9] = target: Serine/threonine-protein kinase MARK2 (Homo sapiens) (UniProt Q7KZI7); assay: Selectivity interaction (ActivX KiNativ screen (kinase selectivity in THP-1 cell lysates)) EUB0000639a MARK2; format: subcellular; settings: lysate, at 0.01 µM
[10] = target: MAP/microtubule affinity-regulating kinase 3 (Homo sapiens) (UniProt P27448); assay: Selectivity interaction (ActivX KiNativ screen (kinase selectivity in THP-1 cell lysates)) EUB0000639a MARK3; format: subcellular; settings: lysate, at 0.2 µM
[11] = target: Bromodomain-containing protein 8 (Homo sapiens) (UniProt Q9H0E9); assay: Selectivity interaction (Bromodomain panel (DSF asssay)) EUB0000270b BRD8
[12] = target: Casein kinase I isoform gamma-2 (Homo sapiens) (UniProt P78368); settings: at 10 µM
[13] = target: Muscarinic acetylcholine receptor M3 (Homo sapiens, UniProt P20309); assay: Selectivity interaction (Panel of non-epigenetic targets (kinases, GPCRs, ion channels, and transporters, Eurofins) ) EUB0000271b CHRM3; settings: at 1 µM
[14] = target: T1, Aurora kinase C (Homo sapiens) (UniProt Q9UQB9); settings: at 10 µM
T1 sequence (whole entry): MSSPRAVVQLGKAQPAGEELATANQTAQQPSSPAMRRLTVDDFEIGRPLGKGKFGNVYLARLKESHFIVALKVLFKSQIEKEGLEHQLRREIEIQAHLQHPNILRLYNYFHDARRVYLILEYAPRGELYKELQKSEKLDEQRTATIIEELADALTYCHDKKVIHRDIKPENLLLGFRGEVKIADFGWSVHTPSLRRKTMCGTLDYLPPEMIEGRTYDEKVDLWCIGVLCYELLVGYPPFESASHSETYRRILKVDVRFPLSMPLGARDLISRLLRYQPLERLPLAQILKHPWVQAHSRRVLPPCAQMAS

[15] = target: Receptor-type tyrosine-protein kinase FLT3 (Homo sapiens) (UniProt P36888); assay: Selectivity interaction (KinomeScan (DiscoverX)) EUB0001079a FLT3; settings: at 1 µM
[16] = target: Glycogen synthase kinase-3 beta (Homo sapiens, UniProt P49841); assay: Selectivity interaction (KinomeScan (DiscoverX)) EUB0001079a GSK3B; settings: at 1 µM
[17] = target: T2, NUAK family SNF1-like kinase 1 (Homo sapiens) (UniProt O60285); assay: Selectivity interaction (Upstate Kinase Profiler service (Millipore)) EUB0000056c NUAK1; settings: at 1 µM
T2 sequence (whole entry): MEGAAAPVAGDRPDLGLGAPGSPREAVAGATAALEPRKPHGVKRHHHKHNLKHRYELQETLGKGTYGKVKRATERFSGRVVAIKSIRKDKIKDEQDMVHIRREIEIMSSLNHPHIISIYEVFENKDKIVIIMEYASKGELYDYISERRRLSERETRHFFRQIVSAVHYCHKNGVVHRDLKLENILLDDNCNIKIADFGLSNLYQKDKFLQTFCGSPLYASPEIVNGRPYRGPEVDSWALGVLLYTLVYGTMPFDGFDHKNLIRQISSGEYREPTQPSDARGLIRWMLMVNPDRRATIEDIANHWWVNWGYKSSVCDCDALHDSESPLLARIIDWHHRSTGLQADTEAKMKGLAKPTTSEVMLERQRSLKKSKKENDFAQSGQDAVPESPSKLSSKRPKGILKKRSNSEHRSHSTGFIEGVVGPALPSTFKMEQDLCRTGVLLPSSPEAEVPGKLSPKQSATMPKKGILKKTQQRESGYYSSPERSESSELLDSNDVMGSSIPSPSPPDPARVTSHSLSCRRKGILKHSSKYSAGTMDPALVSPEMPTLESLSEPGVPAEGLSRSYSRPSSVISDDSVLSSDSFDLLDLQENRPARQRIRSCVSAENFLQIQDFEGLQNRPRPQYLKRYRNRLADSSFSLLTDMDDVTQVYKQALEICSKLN

[18] = target: Phosphatidylinositol 4-phosphate 5-kinase type-1 alpha (Homo sapiens) (UniProt Q99755); assay: Selectivity interaction (KinomeScan (DiscoverX)) EUB0000655a PIP5K1A; settings: at 10 µM
[19] = system: Epidermal growth factor receptor (Homo sapiens), P00533 [G719C]; assay: (§1) Selectivity interaction (KinomeScan (DiscoverX)) EUB0000618a EGFR; settings: at 10 µM
[20] = system: Epidermal growth factor receptor (Homo sapiens), P00533 [L858R,T790M]; assay: as §1; settings: at 10 µM
[21] = system: Epidermal growth factor receptor (Homo sapiens), P00533 [L858R]; assay: as §1; settings: at 10 µM
[22] = system: Epidermal growth factor receptor (Homo sapiens), P00533 [T790M]; assay: as §1; settings: at 10 µM
[23] = system: Epidermal growth factor receptor (Homo sapiens), P00533 [UNDEFINED MUTATION]; assay: as §1; settings: at 10 µM
[24] = target: Mitogen-activated protein kinase kinase kinase 9 (Homo sapiens) (UniProt P80192); assay: Selectivity interaction (KinomeScan (DiscoverX)) EUB0000618a MAP3K9; settings: at 10 µM
[25] = target: Serine/threonine-protein kinase SIK1 (Homo sapiens) (UniProt P57059); assay: Selectivity interaction (KinomeScan (DiscoverX)) EUB0000618a SIK1; settings: at 10 µM
[26] = target: Receptor tyrosine-protein kinase erbB-4 (Homo sapiens, UniProt Q15303); assay: Selectivity interaction (KinomeScan (DiscoverX)) EUB0000607a ERBB4; settings: at 10 µM
[27] = target: Mitogen-activated protein kinase kinase kinase 20 (Homo sapiens) (UniProt Q9NYL2); assay: Selectivity interaction (Kinase panel (KiNativ target engagement assay in Jurkat cells)) EUB0001635a MAP3K20; format: cell-based; settings: Selectivity number of off-targets 0.0, Selectivity number of targets 233.0, Source Knowledge https://www.sciencedirect.com/science/article/pii/S2451945619300674?via%3Dihub, at 1 µM

Sequence of Mitogen-activated protein kinase kinase kinase 20 (Homo sapiens) (Q9NYL2 2-800 limits assumed): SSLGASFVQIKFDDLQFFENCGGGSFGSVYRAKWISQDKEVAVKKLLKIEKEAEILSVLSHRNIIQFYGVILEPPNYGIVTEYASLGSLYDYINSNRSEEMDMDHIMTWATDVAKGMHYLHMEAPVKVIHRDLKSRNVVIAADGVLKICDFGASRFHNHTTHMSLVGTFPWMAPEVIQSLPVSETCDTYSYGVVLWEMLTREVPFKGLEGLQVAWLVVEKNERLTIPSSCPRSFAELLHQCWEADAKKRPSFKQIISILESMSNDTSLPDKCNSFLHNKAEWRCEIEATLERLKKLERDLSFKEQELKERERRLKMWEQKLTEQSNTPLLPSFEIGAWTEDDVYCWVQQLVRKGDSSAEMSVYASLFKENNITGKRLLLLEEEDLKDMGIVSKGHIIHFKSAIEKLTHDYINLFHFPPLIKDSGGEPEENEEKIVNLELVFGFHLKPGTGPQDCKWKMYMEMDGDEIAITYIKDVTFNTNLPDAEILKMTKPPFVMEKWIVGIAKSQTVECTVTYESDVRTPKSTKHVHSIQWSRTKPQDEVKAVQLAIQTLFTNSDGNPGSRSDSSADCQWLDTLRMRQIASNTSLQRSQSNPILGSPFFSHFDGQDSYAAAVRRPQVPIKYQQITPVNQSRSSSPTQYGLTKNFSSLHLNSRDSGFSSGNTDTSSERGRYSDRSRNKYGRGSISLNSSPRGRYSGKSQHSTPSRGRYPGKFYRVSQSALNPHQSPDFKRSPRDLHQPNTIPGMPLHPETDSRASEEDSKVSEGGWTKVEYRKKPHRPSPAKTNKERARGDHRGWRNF
Sequence of Epidermal growth factor receptor (Homo sapiens), P00533 [UNDEFINED MUTATION] (P00533 whole entry, looked up, change not shown): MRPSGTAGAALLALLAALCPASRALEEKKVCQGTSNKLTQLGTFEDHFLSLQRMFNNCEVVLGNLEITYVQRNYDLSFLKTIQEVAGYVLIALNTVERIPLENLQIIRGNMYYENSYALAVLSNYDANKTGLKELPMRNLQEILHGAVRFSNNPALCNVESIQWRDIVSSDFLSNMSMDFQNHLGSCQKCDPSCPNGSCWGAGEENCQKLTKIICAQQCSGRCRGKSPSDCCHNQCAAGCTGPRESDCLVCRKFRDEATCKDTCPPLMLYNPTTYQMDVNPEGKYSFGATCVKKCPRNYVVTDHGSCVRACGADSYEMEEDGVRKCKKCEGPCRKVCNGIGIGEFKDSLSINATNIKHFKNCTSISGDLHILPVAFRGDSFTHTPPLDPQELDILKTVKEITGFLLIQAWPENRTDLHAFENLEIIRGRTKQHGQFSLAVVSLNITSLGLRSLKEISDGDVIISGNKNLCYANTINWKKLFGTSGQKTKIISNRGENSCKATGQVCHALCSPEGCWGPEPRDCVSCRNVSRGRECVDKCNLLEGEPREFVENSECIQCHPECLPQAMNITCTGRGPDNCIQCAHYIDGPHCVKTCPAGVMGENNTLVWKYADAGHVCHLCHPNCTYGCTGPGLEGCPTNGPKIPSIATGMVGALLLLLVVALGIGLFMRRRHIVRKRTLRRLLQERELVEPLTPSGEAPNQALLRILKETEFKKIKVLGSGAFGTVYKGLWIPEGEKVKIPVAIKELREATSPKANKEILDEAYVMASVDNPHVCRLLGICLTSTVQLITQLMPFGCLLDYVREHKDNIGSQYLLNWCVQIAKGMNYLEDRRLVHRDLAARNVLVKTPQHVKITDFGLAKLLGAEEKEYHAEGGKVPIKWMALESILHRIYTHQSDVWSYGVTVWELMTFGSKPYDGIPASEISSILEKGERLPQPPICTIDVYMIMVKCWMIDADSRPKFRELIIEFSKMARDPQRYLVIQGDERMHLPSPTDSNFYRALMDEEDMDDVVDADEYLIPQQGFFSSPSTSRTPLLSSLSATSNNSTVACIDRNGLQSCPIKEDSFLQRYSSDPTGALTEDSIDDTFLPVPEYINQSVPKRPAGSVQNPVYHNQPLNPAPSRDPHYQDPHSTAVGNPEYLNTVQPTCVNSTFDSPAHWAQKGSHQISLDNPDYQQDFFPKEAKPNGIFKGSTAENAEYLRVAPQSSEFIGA
Sequence of Epidermal growth factor receptor (Homo sapiens), P00533 [L858R] (P00533 whole entry L858R): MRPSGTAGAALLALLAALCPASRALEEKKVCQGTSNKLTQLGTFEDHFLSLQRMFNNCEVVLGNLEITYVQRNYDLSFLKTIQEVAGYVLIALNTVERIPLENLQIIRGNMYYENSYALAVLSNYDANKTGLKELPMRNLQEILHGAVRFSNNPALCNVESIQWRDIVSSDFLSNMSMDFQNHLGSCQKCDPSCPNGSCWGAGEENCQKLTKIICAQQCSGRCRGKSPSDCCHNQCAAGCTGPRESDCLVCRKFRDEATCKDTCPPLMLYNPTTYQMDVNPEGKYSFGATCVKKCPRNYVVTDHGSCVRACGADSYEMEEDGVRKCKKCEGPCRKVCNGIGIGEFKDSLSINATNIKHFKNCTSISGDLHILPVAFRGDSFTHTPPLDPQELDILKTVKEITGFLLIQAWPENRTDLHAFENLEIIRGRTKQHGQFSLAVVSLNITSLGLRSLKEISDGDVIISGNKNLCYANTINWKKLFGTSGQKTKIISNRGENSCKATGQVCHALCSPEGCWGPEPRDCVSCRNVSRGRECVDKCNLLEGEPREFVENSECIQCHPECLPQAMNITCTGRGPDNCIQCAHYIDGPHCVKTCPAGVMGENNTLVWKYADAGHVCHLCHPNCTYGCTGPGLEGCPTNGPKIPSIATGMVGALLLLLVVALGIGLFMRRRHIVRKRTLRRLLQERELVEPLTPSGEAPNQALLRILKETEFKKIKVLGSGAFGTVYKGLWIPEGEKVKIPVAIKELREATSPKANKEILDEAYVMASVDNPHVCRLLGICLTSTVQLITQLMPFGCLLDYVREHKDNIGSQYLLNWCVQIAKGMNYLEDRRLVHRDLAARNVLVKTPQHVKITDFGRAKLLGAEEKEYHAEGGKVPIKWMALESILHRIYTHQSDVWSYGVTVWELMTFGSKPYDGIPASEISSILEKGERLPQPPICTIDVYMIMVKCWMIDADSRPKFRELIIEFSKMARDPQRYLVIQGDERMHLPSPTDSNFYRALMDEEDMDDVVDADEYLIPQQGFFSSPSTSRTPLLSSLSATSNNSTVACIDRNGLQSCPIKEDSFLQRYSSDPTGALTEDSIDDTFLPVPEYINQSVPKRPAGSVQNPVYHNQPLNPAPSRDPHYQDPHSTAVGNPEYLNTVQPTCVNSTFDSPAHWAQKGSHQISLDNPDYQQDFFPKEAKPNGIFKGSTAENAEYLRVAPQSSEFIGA
Sequence of Tyrosine-protein kinase Blk (Homo sapiens) (P51451 2-505 limits assumed): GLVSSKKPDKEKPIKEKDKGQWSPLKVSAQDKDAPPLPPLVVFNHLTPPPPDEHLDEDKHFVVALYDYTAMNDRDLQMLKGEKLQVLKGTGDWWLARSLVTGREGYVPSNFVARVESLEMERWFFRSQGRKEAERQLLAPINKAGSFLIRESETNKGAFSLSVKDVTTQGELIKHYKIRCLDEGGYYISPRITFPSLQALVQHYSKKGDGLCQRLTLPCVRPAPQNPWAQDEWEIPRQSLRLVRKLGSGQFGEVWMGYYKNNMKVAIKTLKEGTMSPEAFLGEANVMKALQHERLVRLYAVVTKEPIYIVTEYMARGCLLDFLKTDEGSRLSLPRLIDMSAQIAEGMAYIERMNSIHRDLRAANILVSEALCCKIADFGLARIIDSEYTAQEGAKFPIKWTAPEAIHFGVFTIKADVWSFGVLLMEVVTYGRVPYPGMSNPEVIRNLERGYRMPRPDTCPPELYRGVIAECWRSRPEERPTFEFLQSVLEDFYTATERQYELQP
Sequence of MAP/microtubule affinity-regulating kinase 3 (Homo sapiens) (P27448 whole entry, looked up): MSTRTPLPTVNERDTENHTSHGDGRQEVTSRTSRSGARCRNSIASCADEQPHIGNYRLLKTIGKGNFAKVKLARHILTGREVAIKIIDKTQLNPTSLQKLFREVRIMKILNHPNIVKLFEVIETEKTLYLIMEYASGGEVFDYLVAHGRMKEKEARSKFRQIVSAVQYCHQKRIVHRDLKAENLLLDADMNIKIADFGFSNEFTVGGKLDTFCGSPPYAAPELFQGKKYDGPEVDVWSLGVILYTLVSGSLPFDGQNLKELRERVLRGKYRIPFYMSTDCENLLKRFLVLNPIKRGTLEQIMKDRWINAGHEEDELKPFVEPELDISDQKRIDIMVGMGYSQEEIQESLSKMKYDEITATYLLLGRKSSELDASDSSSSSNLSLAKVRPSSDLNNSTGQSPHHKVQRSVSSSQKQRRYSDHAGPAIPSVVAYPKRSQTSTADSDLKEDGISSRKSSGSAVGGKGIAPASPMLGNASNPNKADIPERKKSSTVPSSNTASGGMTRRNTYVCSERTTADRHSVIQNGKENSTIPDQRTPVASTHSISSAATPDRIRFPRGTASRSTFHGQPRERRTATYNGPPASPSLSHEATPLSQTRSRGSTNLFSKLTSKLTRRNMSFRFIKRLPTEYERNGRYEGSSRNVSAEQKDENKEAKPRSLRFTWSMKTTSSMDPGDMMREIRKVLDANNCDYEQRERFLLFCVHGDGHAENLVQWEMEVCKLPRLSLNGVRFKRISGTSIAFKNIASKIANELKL
Sequence of Casein kinase I isoform gamma-3 (Homo sapiens) (Q9Y6M4 whole entry, looked up, canonical isoform): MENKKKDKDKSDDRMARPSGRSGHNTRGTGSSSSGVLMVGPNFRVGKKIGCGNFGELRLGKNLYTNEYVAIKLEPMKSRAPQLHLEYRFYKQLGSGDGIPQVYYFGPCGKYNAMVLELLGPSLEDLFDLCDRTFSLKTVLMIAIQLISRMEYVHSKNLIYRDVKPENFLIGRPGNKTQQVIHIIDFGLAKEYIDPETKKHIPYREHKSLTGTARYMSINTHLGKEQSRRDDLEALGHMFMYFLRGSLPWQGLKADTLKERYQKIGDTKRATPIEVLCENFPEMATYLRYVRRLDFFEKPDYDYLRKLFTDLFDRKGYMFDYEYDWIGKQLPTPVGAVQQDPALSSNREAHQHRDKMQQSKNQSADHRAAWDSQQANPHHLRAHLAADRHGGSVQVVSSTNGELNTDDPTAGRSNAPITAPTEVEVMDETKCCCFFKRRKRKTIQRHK

## Cc1cc([C@@H](C)Nc2ccccc2C(=O)O)c2nc(N3CCOCC3)cc(=O)n2c1 [AZD-6482]
[1]
  % of control: 100%
[2]
  % of control: 100%
[3]
  % of control: 100%

## CC(=O)Nc1cccc(-n2c(=O)n(C3CC3)c(=O)c3c(Nc4ccc(I)cc4F)n(C)c(=O)c(C)c32)c1
[4]
  % of control: 74%

## Cc1cnc(Nc2ccc(F)cc2Cl)nc1-c1c[nH]c(C(=O)N[C@H](CO)c2cccc(Cl)c2)c1
[5]
  Ki: 400 nM

## COc1cc(Nc2nc(C)cc(-c3cnn4nc(OC)ccc34)n2)cc(C(F)(F)F)c1
[6]
  % of control: 100%

## CCn1c(-c2nc3cc(C(=O)N4CCCC(N)C4)ccc3n2C)cc2ccccc21 (configuration not stated)
[7]
  pXC50: < 4.8 M

## CC[C@@H]1[C@H](F)C(=O)N[C@@H]1COc1nccc2cc(C(N)=O)c(OC)cc12 [ZIMLOVISERTIB]
[8]
  % of inhibition: 62.9%
[9]
  % of inhibition: -5.4%
[10]
  % of inhibition: 19.8%

## Cc1cc(CN)cc(C)c1-c1ncn(C)c1-c1cncn1C
[11]
  dTM: -1.17 K

## CCN(CC)CCCCNc1ncc2cc(-c3cc(OC)cc(OC)c3)c(NC(=O)NC(C)(C)C)nc2n1
[12]
  % of control: 100%

## Cc1cc(C)cc([C@@H]2c3cc(C)ccc3NC(=O)CN2C(=O)c2ccc(Br)s2)c1
[13]
  % of inhibition: 12%

## COCC(=O)NC/C=C/c1ccc2ncnc(Nc3ccc(Oc4ccc(C)nc4)c(C)c3)c2c1 [CP-724714]
[14]
  % of control: 67%

## Nc1cnc(N2CCc3cc(S(=O)(=O)Nc4c(F)cc(Cl)cc4F)cc(N4CCCC4=O)c32)nc1 [TP-020n]
[15]
  % of control: 91%
[16]
  % of control: 100%

## Cc1ccc(-c2ccc3c(ccc4sc5c(c43)NC[C@@H](C)NC5=O)n2)cn1
[17]
  % of inhibition: 35%

## CN(C)CCOc1ccc(-c2nc(-c3ccncc3)c(-c3ccc4c(c3)CC/C4=N\O)[nH]2)cc1
[18]
  % of control: 100%

## O[C@H]1CC[C@H](Nc2ncc3nc(Nc4c(F)cc(F)cc4F)n([C@H]4CCOC4)c3n2)CC1
[19]
  % of control: 20%
[20]
  % of control: 85%
[21]
  % of control: 17%
[22]
  % of control: 72%
[23]
  % of control: 7.4%
[24]
  % of control: 100%
[25]
  % of control: 100%

## CNC(=O)Nc1ccc(-c2nc(N3CC4CCC(C3)O4)c3cnn(C4CCC5(CC4)OCCO5)c3n2)cc1
[26]
  % of control: 100%

## C=CC(=O)Nc1ccc(C(=O)Nc2[nH]nc3c2CN(C(=O)N[C@H](CN(C)C)c2ccccc2)C3(C)C)cc1
[27]
  % of engagement: -9.7%
